In PMC4182301, “Design, synthesis and SAR exploration of tri-substituted 1,2,4-triazoles as inhibitors of the annexin A2–S100A10 protein interaction” (Bioorganic & Medicinal Chemistry, 2014):
Entries after “also recorded” stand apart in the source; their conditions may differ. Read-outs that look alike come from different tables or passages of the source.

Legend:
[1] = biological target: interaction between the AnxA2 N-terminus and S100A10 (Homo sapiens, UniProt P60903); assay: Fluorescence screening assay (FRET competitive binding, Cy3-AnxA2(Ac1–14) peptide / Cy5-S100A10); conditions: for pIC50 ± SE / IC50: FRET assay, 12 observations; for IC50: read-out: IC50; for fold increase in potency compared to initial hit compound 1a: relative to 1a; for inhibitory activity (in words): truncation of 35 to 5-methyl derivative, and its side chain extension; for fold loss of activity on truncation of the 4,6-dimethylpyrimidin-2-ylsulfanyl side chain to methyl: relative to parent compound (64 vs 36, 65 vs 46, 66 vs 47)
Sequence of interaction between the AnxA2 N-terminus and S100A10 (P60903 whole entry, species assumed, the tested form may be a part): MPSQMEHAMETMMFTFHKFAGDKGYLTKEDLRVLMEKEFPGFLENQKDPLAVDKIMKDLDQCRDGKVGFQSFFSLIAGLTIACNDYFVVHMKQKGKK
Description: Assessment of compound activity was performed as described.[35] Briefly, a Cy5-labelled S100A10 tracer was developed and binding of a Cy3-labelled AnxA2(Ac1–14) peptide ligand was assessed using a fluorescence resonance energy transfer readout. Assays were carried out in Nunc black non-treated 384-well plates at 20 °C in 50 μL buffer C. All incubations were performed in quadruplicate. Compounds, peptide and buffer controls were added to the wells in a 10 μL volume in 5% DMSO. Cy5-labelled S100A10 tracer (407 nM) and Cy3-labelled AnxA2(Ac1–14) peptide ligand (1.33 μM) were pre-incubated for 5 min at 20 °C and 40 μL of the preformed complex was then added to the wells and mixed for 10 s to yield a final DMSO concentration of 1%. After 5 min incubation at 20 °C, readings were taken on a Perkin Elmer Envision plate reader by excitation at 488 nm and emission at 695 nm. Fluorescence resonance energy transfer (FRET) was calculated by subtracting the sum of the fluorescence emission of S100A10-Cy5 and AA2(1–14)-Cy3 individually from that measured for the co-incubated partners. Compound binding was calculated as percentage of non-treated control and data were analysed by non-linear regression (dose response—variable slope with bottom and top parameters fixed at 0% and 100%, respectively) using Graphpad Prism Software to determine the IC50 of binding (primary assay).

[2] = biological target: T1, native complex between annexin A2 and S100A10 (Homo sapiens, UniProt P60903); assay: Co-immunoprecipitation of AnxA2 with S100A10 (native complex) from cell lysates, Western blot; format: binding; conditions: MDA-MB-231 cell lysates preincubated with compound or peptide; compared with vehicle
T1 construct: the native complex of the two full-length proteins, AnxA2 and S100A10; endogenous in cells; host or cells: MDA-MB-231 human breast cancer cells (lysate)
T1 sequence (P60903 whole entry, one chain of several): as the sequence (P60903 whole entry, species assumed, the tested form may be a part) above
Description: In the presence of the isolated synthetic peptide AnxA2(1–14), the amount of AnxA2 in the S100A10 immunoprecipitate is reduced, due to it competing with the binding between native AnxA2 and S100A10.
Figure 5 Co-immunoprecipitation of AnxA2 with S100A10. S100A10 was immunoprecipitated from cell lysates and co-immunoprecipitation of AnxA2 was assessed by Western blotting. The amount of AnxA2 in the S100A10 immunoprecipitate was quantified using Scion Image Software and expressed as a percentage of the vehicle-treated sample (n = 4 ± SE).
Human MDA-MB-231 breast cancer cells were extracted in 50 mM Tris–HCl (pH 8.0) buffer containing 150 mM sodium chloride and 1% (v/v) NP-40. Lysates were centrifuged at 17,000×g and incubated at 4 °C for 16 h with 10 μL S100A10 antibody (BD transduction Laboratories) and 50 μL protein A/G agarose (Alpha Diagnostic International Inc). […] The supernatant was then analyzed by SDS–PAGE after which the gel was transferred to a nitrocellulose filter. […]

SMILES	pIC50 ± SE ([1]; Table 2)	IC50 ([1]; Table 2) [µM]	pIC50 ± SE ([1]; Table 3)	IC50 ([1]; Table 3) [µM]	also measured
Cc1cc(C)nc(SCc2nnc(SCC(=O)Nc3ccc(C(C)C)cc3)n2Cc2ccco2)n1 [Compound 36, 2-[5-(4,6-Dimethyl-pyrimidin-2-ylsulfanylmethyl)-4-furan-2-ylmethyl-4H-[1,2,4]triazol-3-ylsulfanyl]-N-(4-isopropyl-phenyl)-acetamide]					pIC50 ± SE ([1]; Table 1): 5.35 ± 0.04; IC50 ([1]; Table 1): 4 µM; fold increase in potency compared to initial hit compound 1a [1]: ~10 fold; amount of AnxA2 in the S100A10 immunoprecipitate [2]: disrupt the native complex; also recorded: reduced
COc1ccc(-n2c(CSc3nc(C)cc(C)n3)nnc2SCC(=O)Nc2cc(C(F)(F)F)cc(C(F)(F)F)c2)cc1 [Compound 54, N-(3,5-Bis-trifluoromethyl-phenyl)-2-[5-(4,6-dimethyl-pyrimidin-2-ylsulfanylmethyl)-4-(4-methoxy-phenyl)-4H-[1,2,4]triazol-3-ylsulfanyl]-acetamide]	5.14 ± 0.04	7			
Cc1ccc(NC(=O)CSc2nnc(C)n2Cc2ccco2)cc1C [Compound 62, N-(3,4-Dimethyl-phenyl)-2-(4-furan-2-ylmethyl-5-methyl-4H-[1,2,4]triazol-3-ylsulfanyl)-acetamide]			2.32 ± 0.48	> 1000	inhibitory activity (in words) [1]: complete loss of activity
Cc1ccc(NC(=O)CCSc2nnc(C)n2Cc2ccco2)cc1C [Compound 63, N-(3,4-Dimethyl-phenyl)-3-(4-furan-2-ylmethyl-5-methyl-4H-[1,2,4]triazol-3-ylsulfanyl)-propionamide]			2.95 ± 0.26	> 1000	inhibitory activity (in words) [1]: abolished activity
C=CCn1c(C)nnc1SCC(=O)Nc1ccc(C(C)C)cc1 [Compound 65, 2-(4-Allyl-5-methyl-4H-[1,2,4]triazol-3-ylsulfanyl)-N-(4-isopropyl-phenyl)-acetamide]			3.86 ± 0.11	138	fold loss of activity on truncation of the 4,6-dimethylpyrimidin-2-ylsulfanyl side chain to methyl [1]: 14 fold
COCCCn1c(C)nnc1SCC(=O)Nc1ccc(C(C)C)cc1 [Compound 66, N-(4-Isopropyl-phenyl)-2-[4-(3-methoxy-propyl)-5-methyl-4H-[1,2,4]triazol-3-ylsulfanyl]-acetamide]			3.79 ± 0.14	164	fold loss of activity on truncation of the 4,6-dimethylpyrimidin-2-ylsulfanyl side chain to methyl [1]: 23 fold

More lines, main results first:

pIC50 ± SE ([1]; Table 2)	IC50 ([1]; Table 2) [µM]	pIC50 ± SE ([1]; Table 3)	IC50 ([1]; Table 3) [µM]	SMILES	also measured
5.02 ± 0.04	10			COCCCn1c(CSc2nc(C)cc(C)n2)nnc1SCC(=O)Nc1ccc(C(F)(F)F)cc1 [Compound 51, 2-[5-(4,6-Dimethyl-pyrimidin-2-ylsulfanylmethyl)-4-(3-methoxy-propyl)-4H-[1,2,4]triazol-3-ylsulfanyl]-N-(4-trifluoromethyl-phenyl)-acetamide]	
5.35 ± 0.04	4			COc1ccc(-n2c(CSc3nc(C)cc(C)n3)nnc2SCC(=O)Nc2ccc(C(F)(F)F)cc2)cc1 [Compound 52, 2-[5-(4,6-Dimethyl-pyrimidin-2-ylsulfanylmethyl)-4-(4-methoxy-phenyl)-4H-[1,2,4]triazol-3-ylsulfanyl]-N-(4-trifluoromethyl-phenyl)-acetamide]	fold increase in potency compared to initial hit compound 1a [1]: 10 fold
5.07 ± 0.03	8			Cc1cc(C)nc(SCc2nnc(SCC(=O)Nc3ccc(C(F)(F)F)cc3)n2-c2ccc(Cl)cc2)n1 [Compound 53, 2-[4-(4-Chloro-phenyl)-5-(4,6-dimethyl-pyrimidin-2-ylsulfanylmethyl)-4H-[1,2,4]triazol-3-ylsulfanyl]-N-(4-trifluoromethyl-phenyl)-acetamide]	
4.65 ± 0.05	22			COc1ccc(-n2c(CSc3nc(C)cc(C)n3)nnc2SCC(=O)Nc2ccc(Cl)cc2)cc1 [Compound 55, N-(4-Chloro-phenyl)-2-[5-(4,6-dimethyl-pyrimidin-2-ylsulfanylmethyl)-4-(4-methoxy-phenyl)-4H-[1,2,4]triazol-3-ylsulfanyl]-acetamide]	
3.81 ± 0.03	154			COc1ccc(NC(=O)CSc2nnc(CSc3nc(C)cc(C)n3)n2-c2ccc(OC)cc2)cc1 [Compound 56, 2-[5-(4,6-Dimethyl-pyrimidin-2-ylsulfanylmethyl)-4-(4-methoxy-phenyl)-4H-[1,2,4]triazol-3-ylsulfanyl]-N-(4-methoxy-phenyl)-acetamide]	
		4.40 ± 0.03	40	Cc1nnc(SCC(=O)Nc2ccc(C(C)C)cc2)n1Cc1ccco1 [Compound 64, 2-(4-Furan-2-ylmethyl-5-methyl-4H-[1,2,4]triazol-3-ylsulfanyl)-N-(4-isopropyl-phenyl)-acetamide]	fold loss of activity on truncation of the 4,6-dimethylpyrimidin-2-ylsulfanyl side chain to methyl [1]: 10 fold
